From patent publication US12558342B2, “2-[2-({12,12-dimethyl-4-oxo-6-phenyl-3,11-dioxatricyclo[8.4.0.0,2,7]tetradeca-1,5,7,9-tetraen-8-yl}oxy)acetamido]benzamide and derivatives as inhibitor of clock:bmal1 interaction for the treatment of circadian rhythm diseases and disorders” (KOC UNIVERSITESI, priority 2019, dated 2026)

How the values were obtained:
CLOCK = biological target: T1, CLOCK (Homo sapiens, UniProt O15516); test: LC-MS/MS of pull-down precipitates, CLOCK; assay type: binding; parameters: expressed in transfected cells; host or cells: HEK293T
T1 sequence (O15516 1-846): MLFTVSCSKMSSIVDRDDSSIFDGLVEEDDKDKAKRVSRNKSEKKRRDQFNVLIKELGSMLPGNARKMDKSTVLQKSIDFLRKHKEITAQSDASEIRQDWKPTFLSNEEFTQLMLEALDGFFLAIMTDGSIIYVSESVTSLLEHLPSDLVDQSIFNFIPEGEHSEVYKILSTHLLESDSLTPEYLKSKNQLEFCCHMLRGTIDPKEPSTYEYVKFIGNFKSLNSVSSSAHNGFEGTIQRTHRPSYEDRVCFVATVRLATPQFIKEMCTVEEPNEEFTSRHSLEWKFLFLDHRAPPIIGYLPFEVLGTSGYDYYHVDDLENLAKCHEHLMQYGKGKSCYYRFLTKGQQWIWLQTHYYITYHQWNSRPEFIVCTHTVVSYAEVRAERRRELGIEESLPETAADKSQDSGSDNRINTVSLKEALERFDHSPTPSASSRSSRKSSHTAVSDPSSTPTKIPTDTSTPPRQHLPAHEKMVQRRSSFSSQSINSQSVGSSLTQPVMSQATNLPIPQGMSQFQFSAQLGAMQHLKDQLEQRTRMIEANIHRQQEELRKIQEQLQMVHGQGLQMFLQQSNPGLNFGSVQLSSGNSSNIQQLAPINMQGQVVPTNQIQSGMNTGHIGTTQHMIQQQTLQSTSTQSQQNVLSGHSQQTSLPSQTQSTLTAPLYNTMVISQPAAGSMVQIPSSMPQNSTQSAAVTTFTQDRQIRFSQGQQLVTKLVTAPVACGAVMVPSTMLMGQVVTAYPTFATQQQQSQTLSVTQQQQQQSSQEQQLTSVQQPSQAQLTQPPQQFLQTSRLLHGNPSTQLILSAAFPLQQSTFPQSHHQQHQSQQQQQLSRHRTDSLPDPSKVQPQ
Description: HEK293T cells were transiently transfected with tag-free hsClock and mBmal1. After 48 hours of transfection, cells were harvested and whole cell lysate was prepared with ice-cold lysis buffer (50 mM Tris-HCl pH 7.4, 2 mM EDTA, 1 mM MgCl2, 0.2% NP-40, 1 mM sodium orthovanadate, 1 mM sodium fluoride and protease inhibitor cocktail) followed by centrifugation at 7000×g at 4° C. for 10 minutes. Lysate was diluted with ice-cold 2× binding buffer (100 mM Tris-HCl pH 7.4, 300 mM NaCl, 0.2% NP-40, 2 mM sodium orthovanadate, 2 mM sodium fluoride, and protease inhibitor cocktail) 27. The lysate was divided into three fractions to be treated with either DMSO, or 20 μM of bitoinylated-CLK8 (bait) with or without 200 μM CLK8 (competitor). […]
The next step was to check for off-targets of CLK8. […] Since the amount of precipitated endogenous CLOCK was insufficient to be detected in LC-MS/MS, whole cell lysate of HEK 293T cells overexpressing CLOCK and BMAL1 were used for LC-MS/MS. We determined proteins that potentially bind to CLK8 by utilizing a minimum threshold for peptide spectrum matches and coverage equal to those of the main target, CLOCK. We also excluded proteins that have been detected in negative controls of the CRAPome database (32), assuming them as abundant sticky proteins. […] BMAL1 was detected in lower amounts when a competitor was present. […]

[1] = biological target: T2, CLOCK and BMAL1 interaction (Homo sapiens, UniProt O15516); test: Co-immunoprecipitation of FLAG-CLOCK and BMAL1; assay type: biochemical; details: 10 μM and 40 μM
T2 construct: expressed in transfected cells; host or cells: HEK 293T
T2 sequence (O15516 1-846): T1 sequence (O15516 1-846)
Description: HEK 293T cells co-expressing wild type or F80A-K220A mutant FLAG-tagged Clock together with tag-free Bmal1 were lysed with ice-cold lysis buffer (50 mM Tris-HCl PH 7.7, 150 mM NaCl, 0.1% Triton X-100, 1 mM PMSF and protease inhibitor cocktail) and centrifuged at 15000×g at 4° C. for 20 minutes. DMSO and different concentrations of CLK8 were added to the whole cell lysate. The mixtures were incubated with anti-FLAG M2 affinity gel (Sigma-Aldrich) at 4° C. overnight with continuous mixing. After three wash steps, bound proteins were eluted with Laemmli buffer heated at 95° C. for 7 minutes. CLOCK and BMAL1 were detected by monoclonal anti-FLAG M2 antibody (Sigma-Aldrich) and anti-BMAL1 (Santa Cruz Biotechnology) respectively. The amount of co-precipitated BMAL1 was normalized with the amount of precipitated CLOCK.
HEK 293T cells co-expressing wild type or F80A-K220A mutant FLAG-tagged Clock together with tag-free Bmal1 were lysed with ice-cold lysis buffer (50 mM Tris-HCl pH 7.7, 150 mM NaCl, 0.1% Triton X-100, 1 mM PMSF and protease inhibitor cocktail) and centrifuged at 15000×g at 4° C. for 20 minutes. DMSO and different concentrations of CLK8 were added to the whole cell lysate. […] CLOCK and BMAL1 were detected by monoclonal anti-FLAG M2 antibody (Sigma-Aldrich) and anti-BMAL1 (Santa Cruz Biotechnology) respectively. […]

Peptide spectrum matches, CLOCK (CLOCK; Competitor 0 μM): 42
Peptide spectrum matches, CLOCK (CLOCK; Competitor 200 μM): not detected
SMILES: CC1(C)CCc2c(cc(OCC(=O)Nc3ccccc3C(N)=O)c3c(-c4ccccc4)cc(=O)oc23)O1 [CLK8, 2-[2-({12,12-dimethyl-4-oxo-6-phenyl-3,11-dioxatricyclo [8.4.0.0,2,7]tetradeca-1,5,7,9-tetraen-8-yl}oxy)acetamido] benzamide]
amount of co-precipitated BMAL1 [1]: reduced as the concentration of CLK8 increased
